In patent US20240239729A1, “Functionalization of Lightly Branched Olefin Oligomers” (priority 2021, published 2024):

Assays:
Type in all cases: physicochemical
[1] = Calcium tolerance (hard water tolerance), surfactant remaining in filtrate by HPLC-ELSD; conditions: 25° C.; 450 ppm surfactant, 420 ppm cations (3:1 Ca2+:Mg2+), stood overnight, 0.22 μm filtrate
Protocol: Calcium tolerance was measured at 25° C. using the following procedure. A surfactant solution containing 450 ppm of alcohol sulfate surfactant and 420 ppm cations (3:1 Ca^2+:Mg^2+) was prepared and allowed to stand overnight. Crystals formed during this time. The supernatant liquid was removed and passed through a 0.22 μm filter to provide a filtrate. The filtrate was then analyzed for surfactant residue. Analysis of the surfactant and salt residue was performed using an Agilent 1100 HPLC combined with SEDEX 75 evaporative light scattering detector (ELSD) using the run conditions specified in Table 4 below. Peak height was utilized to analyze surfactant concentration. Some samples were repeated in triplicate. Calcium tolerance results are specified in Table 5 below.

[2] = Critical micelle concentration in water (Kruss K100 tensiometer)
Protocol: Critical micelle concentrations in water were measured using an A Kruss Laboratory K100 tensiometer. CMC values were determined using the K100 instrument's fully automated measurement method, as described further in the K100 instrument's operating manual.

[3] = Solubility in water at 25° C. by visual observation; conditions: 2-3 hours magnetic stirring
Protocol: Solubility measurements were conducted in water at 25° C. Solubility was determined through visual observation after 2-3 hours of magnetic stirring of surfactant solutions having variable concentrations.

CMC [2]	Solubility at 25° C., (Wt. %) [3]	Compound	Calcium tolerance (ppm surfactant remaining) [1]
0.001 g/g	<0.5% Wt. %	CCCCCCCCCCCCCOS(=O)(=O)[O-].[Na+] [Entry 5, Sodium n-Tridecyl Sulfate]	11.2 ppm
0.00129 g/g		CCCC(C)CCCC(C)CCCOS(=O)(=O)O (stereo not shown) [Entry 8, 4,8-dimethylundecan-1-sulfate]	
